Assay results taken from PMC10059083, “Design, Synthesis, and Biological Evaluation of Novel Hydroxamic Acid-Based Organoselenium Hybrids” (Pharmaceuticals, 2023).
In brackets after ≈: the same amount, converted by molar mass.

How the values were obtained:
[1] = system: MCF-7 cells; assay: MTT antiproliferative assay, MCF-7 cells; format: cell-based
Text: Recently, OSe agents have attracted interest due to their potential chemoprotective and antitumor properties. […] Therefore, we estimated the OSe agents’ antiproliferative activities against different cancer cells, i.e., MCF-7 and HepG2 cells and healthy lung fibroblast WI-38 cells, using the MTT assay. The drug doxorubicin was employed as the standard. The corresponding therapeutic indices (TI) are described as the proportion of the WI38 cells IC50 to the IC50 of the cancer cell (e.g., MCF-7 and HepG2) (Table 1).
(§1) The products’ anticancer activity was examined using the MTT assay against breast (MCF-7) carcinoma cells, liver (HepG2), and normal WI-38 cells, following the previously reported method. Experimental details can be found in the Supplementary Materials.
(§2) 1.1. The biological assays
(§3) 1.1.1. The anticancer activity
(§4) The breast adenocarcinoma (MCF-7), Hepatocellular carcinoma (HEPG-2), and normal fibroblast (WI-38) cells were obtained from ATCC via Holding company for biological products and vaccines (VACSERA), Cairo, Egypt. The reagents […] medium, MTT, DMSO, and fetal bovine serum was obtained from Sigma Aldrich. Dulbecco’s modified Eagle’s medium was used as the culture medium for the cells, and the cytotoxicity was evaluated using the reported MTT assay. Doxorubicin was used as the positive reference, and the IC50 values were obtained from the corresponding dose-response curve.
(§5) This colorimetric assay is based on converting the yellow tetrazolium bromide (MTT) to a purple formazan derivative by mitochondrial succinate dehydrogenase in viable cells. Cell lines were cultured in […] medium with 10% fetal bovine serum. Antibiotics added were 100 units/ml penicillin and 100µg/ml streptomycin at 37 C in a 5% Co2 incubator. The cell lines were seeded in a 96-well plate at a density of 1.0x10^4 cells/well. at 37 C for 48 h under 5% Co2. After incubation, the cells were treated with different concentrations of compounds and incubated for 13 […]
Finally, dimethyl sulfoxide (DMSO) in the volume of 100 µl is added to each well to dissolve the purple formazan formed. The colorimetric assay is measured and recorded at an absorbance of 570 […]
The percentage of the relative cell viability was calculated as (A570 of treated samples/A570 of the untreated sample) X 100. […]

[2] = system: HepG2 cells; assay: MTT antiproliferative assay, HepG2 cells; format: cell-based
Text: Recently, OSe agents have attracted interest due to their potential chemoprotective and antitumor properties. We have developed several OSe compounds with promising antioxidant, antimicrobial, and antitumor properties. Therefore, we estimated the OSe agents’ antiproliferative activities against different cancer cells, i.e., MCF-7 and HepG2 cells and healthy lung fibroblast WI-38 cells, using the MTT assay. The drug doxorubicin was employed as the standard. The corresponding therapeutic indices (TI) are described as the proportion of the WI38 cells IC50 to the IC50 of the cancer cell (e.g., MCF-7 and HepG2) (Table 1).
as §1, §2, §3, §4, §5
Finally, dimethyl sulfoxide (DMSO) in the volume of 100 µl is added to each well to dissolve the purple formazan formed. The colorimetric assay is measured and recorded at an absorbance of 570 nm using a plate reader (EXL 800, USA). The percentage of the relative cell viability was calculated as (A570 of treated samples/A570 of the untreated sample) X 100. […]

[3] = system: S. aureus; assay: Agar diffusion assay, S. aureus; format: cell-based, Staphylococcus aureus; design: concentration or dose not given beside the values; settings: ratio of inhibition zone of compound to that of positive control (ampicillin)
Text: (§6) The encouraging antitumor properties of the OSe compounds motivated us to evaluate their corresponding antimicrobial activities against the C. albicans fungal strain, S. aureus Gram-positive bacteria, and E. coli Gram-negative bacteria. Therefore, we applied the agar diffusion and minimum inhibitory concentration (MIC) methods using clotrimazole antifungal and ampicillin antibacterial drugs as standards.
The products’ antimicrobial properties were examined according to the previously reported method, via agar well diffusion assay against E. coli, S. aureus, and C. albicans. A microdilution method was also used to record MICs (M), following the previously reported procedure. Experimental details can be found in the Supplementary Materials. […]
1.1.2. The antimicrobial activity
The antimicrobial activities of the OSe compounds were evaluate d against C. albicans yeast as well as E. coli gram-negative and S. aureus gram-positive bacteria employing the agar well diffusion assay.
(§7) Briefly, a concentration of 1 mM was prepared for each compound by dissolving in DMSO. Paper discs of standard size […] were sterilized in an autoclave and soaked in 9 µL of the test compounds, and placed in the Petri dishes, which in turn contain a nutrient media (agar 9 g, peptone 5 g, and beef extract 3 g) seeded with the dedicated strain. Incubation lasted for 13 h at 36 0C.
Experiments were replicated three times and the antifungal clotrimazole and antibiotic ampicillin […]

[4] = system: E. coli; assay: MIC by microdilution, E. coli; format: cell-based; settings: Escherichia coli; microdilution method
Text: as §6
(§8) The products’ antimicrobial properties were examined according to the previously reported method, via agar well diffusion assay against E. coli, S. aureus, and C. albicans. A microdilution method was also used to record MICs (M), following the previously reported procedure. Experimental details can be found in the Supplementary Materials.
as §7, with “0C. […]” for “0C.”

[5] = system: C. albicans; assay: MIC by microdilution, C. albicans; format: cell-based; settings: Candida albicans, read-out: MIC C. albicans
Text: as §6, §8
as §7, with “0C. […]” for “0C.”

## Nc1ccc([Se]CC(=O)NOCc2ccccc2)cc1 [Compound 8, 2-((4-Aminophenyl)selanyl)-N-(benzyloxy)acetamide]
[1]; Homo sapiens, MCF7, 24 h, read-out: MCF7 IC50
  IC50: 9.86 ± 0.7 µM
[1]; ratio of IC50 against WI38 cells to IC50 against MCF-7 cells
  MCF7 TI (therapeutic index): 2.8
[2]; Homo sapiens, HepG2, 24 h, read-out: HepG2 IC50
  IC50: 7.57 ± 0.5 µM
[2]; ratio of IC50 against WI38 cells to IC50 against HepG2 cells
  HepG2 TI (therapeutic index): 3.6
[3]
  S. aureus IA% (activity index): 90.5%
[4]
  MIC: 8 µM (≈ 2.68 µg/mL)
[5]
  MIC: 4 µM (≈ 1.34 µg/mL)
